Source: patent US20250154145A1, “OXER1 ANTAGONISTS AND USES THEREOF” (Fairhaven Pharmaceuticals Ins., priority 2021, published 2025)

Test system: neutrophils
Assay: Neutrophil calcium flux assay (5-OXO-ETE-stimulated, Indo-1 fluorescence)
Type: cell-based
Conditions: 5-OXO-ETE-stimulated calcium flux
In short: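 Indo-1-loaded neutrophils (5×10^6 cells/ml, 30 min at 37 °C) in HBSS with Ca/Mg and HEPES, pre-incubated 5 min with antagonist or buffer. Stimulated with 5-OXO-ETE added at 200 nM (4× stock); fluorescence (ex 331/em 410 nm) read every 5 s for 30 cycles, expressed as net fluorescence.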

| SMILES | IC50 |
| --- | --- |
| CC(CC(=O)O)CC(=O)c1c(CCCCCC(O)c2cccc(C(=O)N(C)C)c2)n(C)c2ncc(C#N)cc12 (single isomer, unassigned) [Compound I-315] | > 300 nM |

Same assay, conditions: Neutrophil, 5-OXO-ETE-stimulated calcium flux

| SMILES | IC50 |
| --- | --- |
| COC(=O)[C@H]1CCN(C(=O)c2c(CCCCCCC#CC3CC(F)(F)C3)n(C)c3ncc(C#N)cc23)[C@@H]1C [Compound I-351] | > 300 nM |
| CC(CC(=O)O)CC(=O)c1c(COCCOCc2cccc(Cl)c2)n(C)c2ccc(Cl)cc12 (stereo not drawn) [Compound I-65] | 100 to 300 nM |
| C[C@H](CC(=O)O)CC(=O)c1c(CCCCOCc2cccc(C#N)c2)n(C)c2ncc(C#N)cc12 [Compound I-383] | < 100 nM |
| C[C@H](CC(=O)O)CC(=O)c1c(CCCCCNc2cccc(Cl)c2)n(C)c2ccc(Cl)cc12 [Compound I-79] | < 100 nM |
| C[C@H](CC(=O)O)CC(=O)c1c(CCCCCCc2ccccn2)n(C)c2ccc(Cl)cc12 [Compound I-54] | 100 to 300 nM |
| CC(=O)Nc1cccc(COCCCCc2c(C(=O)CC(C)CC(=O)O)c3cc(C#N)cnc3n2C)c1 (stereo not drawn) [Compound I-298] | 100 to 300 nM |
| Cn1c(CCCCCCC#CC2CC(F)(F)C2)c(C(=O)N2CC[C@H](C(=O)O)C2)c2cc(Br)cnc21 [Compound I-345] | 100 to 300 nM |
| CC(CC(=O)O)CC(=O)c1c(CCCCCC(O)c2cccc(C(=O)N(C)C)c2)n(C)c2ncc(C#N)cc12 (stereo not drawn) [Compound I-314] | < 100 nM |
| CC(CC(=O)O)CC(=O)c1c(CCCCOCc2cccc(Cl)c2)n(CCO)c2ncc(C#N)cc12 (stereo not drawn) [Compound I-377] | > 300 nM |
| C[C@H](CC(=O)O)CC(=O)c1c(CCCCOCc2cccc(C#N)c2)n(C)c2cnccc12 [Compound I-394] | < 100 nM |
| C[C@H](CC(=O)O)CC(=O)c1c(CCCCC#Cc2ccccc2)n(C)c2ccc(Cl)cc12 [Compound I-117] | < 100 nM |
| Cn1c(CCCCCCc2cccc(Cl)c2)c(CN2CC[C@H](C(=O)O)C2)c2cc(Cl)ccc21 [Compound I-303] | > 300 nM |
| C[C@H](CC(=O)O)CC(=O)c1c(CCCCc2nc3cc(Cl)ccc3o2)n(C)c2ccc(Cl)cc12 [Compound I-145] | > 300 nM |
| C[C@H](CC(=O)O)CC(=O)c1c(CCCCOCc2ccccc2)n(C)c2ncccc12 [Compound I-101] | > 300 nM |
| CC(CC(=O)O)CC(=O)c1c(CCCCOCc2cncc(C#N)c2)n(C)c2ncc(Cl)cc12 (stereo not drawn) [Compound I-445] | > 300 nM |
| CC(CC(=O)O)CC(=O)c1c(CCCCOCc2cccc(C#N)c2)n(C)c2ncc(C(F)(F)F)cc12 (stereo not drawn) [Compound I-417] | 100 to 300 nM |
| Cn1c(CCCCCCc2cccc(Cl)c2)c(C(=O)N2CCC[C@H]2CC(=O)O)c2cc(Cl)ccc21 [Compound I-121] | > 300 nM |
| CC(CNC(=O)c1c(CCCCOCc2cccc(Cl)c2)n(C)c2ncc(C#N)cc12)C(=O)O (stereo not drawn) [Compound I-242] | > 300 nM |
| C[C@H](CC(=O)O)CC(=O)c1c(CCCCCCC#CC(C)(C)C)n(C)c2ccc(Cl)cc12 [Compound I-112] | < 100 nM |
| CC(CC(=O)O)CC(=O)c1c(CCOCCNc2ccccc2)n(C)c2ncc(C#N)cc12 (stereo not drawn) [Compound I-289] | 100 to 300 nM |
| C[C@H](CC(=O)O)CC(=O)c1c(CCCCCOCc2ccccc2)n(C)c2ncc(C#N)cc12 [Compound I-422] | 100 to 300 nM |
| C[C@@H](CC(=O)O)CC(=O)c1c(CCCCOCc2cccc(Cl)c2)n(C)c2ccc(C#N)cc12 [Compound I-469] | 100 to 300 nM |
| Cn1c(CCCCCCC#CC2CC(F)(F)C2)c(C(=O)N2CC[C@H](C(=O)NCC(=O)O)C2)c2cc(C#N)cnc21 [Compound I-462] | > 300 nM |

| SMILES | IC50 |
| --- | --- |
| CC(CC(=O)O)CC(=O)c1c(CCCCCCC#CC2COC2)n(C)c2ccc(Cl)cc12 (stereo not drawn) [Compound I-321] | < 100 nM |
| CC(CC(=O)O)CC(=O)c1c(C[C@H]2CC[C@H](OCc3cccc(Cl)c3)CC2)n(C)c2ncc(C#N)cc12 (stereo partly drawn) [Compound I-402] | 100 to 300 nM |
| C[C@H](CC(=O)O)NC(=O)c1c(CCCCOCc2cccc(Cl)c2)n(C)c2ncc(C#N)cc12 [Compound I-238] | > 300 nM |
| CC(CC(=O)O)CC(=O)c1c(C2CCN(CCc3cccc(Cl)c3)CC2)n(C)c2ncc(C#N)cc12 (stereo not drawn) [Compound I-295] | > 300 nM |
| C[C@H](CC(=O)O)CC(=O)c1c(CCCCOCc2cccc(C#N)c2)n(C)c2cnc(Cl)cc12 [Compound I-404] | < 100 nM |
| C[C@@H](CC(=O)O)CC(=O)c1c(CCCCOCc2cccc(C#N)c2)n(C)c2cnc(Cl)cc12 [Compound I-405] | > 300 nM |
| C[C@@H](CC(=O)O)CC(=O)c1c(CCCCCCc2cccc(Cl)c2)n(CCO)c2ncc(C#N)cc12 [Compound I-280] | > 300 nM |
| C[C@H](CC(=O)O)N(C)C(=O)c1c(CCCCOCc2cccc(Cl)c2)n(C)c2ncc(C#N)cc12 [Compound I-240] | > 300 nM |
| C[C@H](CC(=O)O)CC(=O)c1c(CCCCCOc2ccccn2)n(C)c2ccc(Cl)cc12 [Compound I-131] | > 300 nM |
| CC(CC(=O)O)CC(=O)c1c(CCCCCC(O)c2ccc(Cl)cc2)n(C)c2ncc(C#N)cc12 (stereo not drawn) [Compound I-310] | 100 to 300 nM |
| C[C@H](CC(=O)O)CC(=O)c1c(CCCCOCc2cccc(Cl)c2)n(C)c2cnccc12 [Compound I-407] | < 100 nM |
| CC(CC(=O)O)CC(=O)c1c(CCCCCCCC#CC2CC(F)(F)C2)n(C)c2ncc(Cl)cc12 (stereo not drawn) [Compound I-334] | > 300 nM |
| C[C@H](CC(=O)O)N(C)C(=O)c1c(CCCCCCc2cccc(Cl)c2)n(C)c2ccc(Cl)cc12 [Compound I-239] | > 300 nM |
| C[C@@H](CC(=O)O)CC(=O)c1c(CCCCOCc2cccc(C#N)c2)n(C)c2ncc(C#N)cc12 [Compound I-384] | > 300 nM |
| C[C@H](CC(=O)O)CC(=O)c1c(CCCCCCC#CC2COC2)n(C)c2ccc(Cl)cc12 [Compound I-332] | < 100 nM |
| C[C@H](CC(=O)O)CC(=O)c1c(CCCCOCc2ccc(F)cc2)n(C)c2ncc(Cl)cc12 [Compound I-215] | > 300 nM |
| CC(CC(=O)NS(C)(=O)=O)CC(=O)c1c(CCCCOCc2ccccc2)n(C)c2ncc(C#N)cc12 (stereo not drawn) [Compound I-362] | > 300 nM |
| C[C@@H](CC(=O)O)CC(=O)c1c(CCCCOCc2cccc(C#N)c2)n(C)c2cnccc12 [Compound I-395] | > 300 nM |
| Cn1c(CCCCCCc2cccc(Cl)c2)c(C(=O)N2CCC[C@@H]2CC(=O)O)c2cc(Cl)ccc21 [Compound I-119] | > 300 nM |
| CC(CC(=O)O)CC(=O)c1c(CCCCOCc2cccc(Cl)c2)n(C)c2ncc(CN(C)C)cc12 (stereo not drawn) [Compound I-375] | > 300 nM |
| C[C@H](CC(=O)O)CC(=O)c1c(CCCCCCCC#CC2CC(F)(F)C2)n(C)c2ncc(C#N)cc12 [Compound I-335] | < 100 nM |
| COc1cccc(COCCCCc2c(C(=O)CC(C)CC(=O)O)c3cc(Cl)cnc3n2C)c1 (stereo not drawn) [Compound I-403] | 100 to 300 nM |
| CC(CC(=O)O)CC(=O)c1c2cc(C#N)cnc2n(C)c1[C@H]1CC[C@H](OCc2cccc(Cl)c2)CC1 (stereo partly drawn) [Compound I-367] | > 300 nM |

| SMILES | IC50 |
| --- | --- |
| CC(CC(=O)O)CC(=O)c1c(CCCCSCc2ccccc2)n(C)c2ncc(C#N)cc12 (stereo not drawn) [Compound I-426] | > 300 nM |
| Cn1ccc(C(=O)N2CC[C@H](C(=O)O)C2)c1CCCCOCc1cccc(Cl)c1 [Compound I-162] | > 300 nM |
| CC(CC(=O)O)CC(=O)c1c(CCCCCCC=C=CC(F)(F)F)n(C)c2ccc(Cl)cc12 (stereo not drawn) [Compound I-304] | > 300 nM |
| Cn1c(CCCCCCCC#CC2CC(F)(F)C2)c(C(=O)N2CC[C@H](c3nnn[nH]3)C2)c2cc(C#N)cnc21 [Compound I-358] | > 300 nM |
| C[C@H](CC(=O)N[C@@H](CCC(N)=O)C(=O)O)CC(=O)c1c(CCCCOCc2ccccc2)n(C)c2ncc(C#N)cc12 [Compound I-460] | > 300 nM |
| C[C@H](CC(=O)O)CC(=O)c1c(CCCCOCc2cccc(Cl)c2)n(C)c2cnc(Cl)cc12 [Compound I-410] | < 100 nM |
| C[C@H](CC(=O)O)CC(=O)c1c(CCCCCNc2ccccn2)n(C)c2ccc(Cl)cc12 [Compound I-128] | > 300 nM |
| C[C@@H](CC(=O)O)CC(=O)c1c(CCCCCCC#CC2COC2)n(C)c2ccc(Cl)cc12 [Compound I-333] | > 300 nM |
| C[C@H](CC(=O)O)CC(=O)c1c(CCOCCNc2cccc(F)c2)n(C)c2ncc(C#N)cc12 [Compound I-246] | 100 to 300 nM |
| C[C@H](CC(=O)O)CC(=O)c1c(CCCCCCc2cccc(Cl)c2)n(C)c2ccc(OC(F)(F)F)cc12 [Compound I-97] | < 100 nM |
| CC(CC(=O)O)CC(=O)c1c(CCCCOCc2cc(C#N)ccn2)n(C)c2ncc(Cl)cc12 (stereo not drawn) [Compound I-444] | > 300 nM |
| Cn1nc(-c2cccc(Cl)c2)c(C(=O)N2CC[C@H](C(=O)O)C2)c1CCCCOCc1cccc(Cl)c1 [Compound I-191] | > 300 nM |
| CC(CC(=O)O)CC(=O)c1c(CCOCCNc2ccc(F)cc2)n(C)c2ccc(Cl)cc12 (stereo not drawn) [Compound I-220] | > 300 nM |
| C[C@H](CC(=O)O)CC(=O)c1c(CCCCCNc2cnccn2)n(C)c2ccc(Cl)cc12 [Compound I-129] | > 300 nM |
| Cn1c(CCCCCCc2cccc(Cl)c2)c(C(=O)N2CCC[C@H](C(=O)O)C2)c2cc(Cl)ccc21 [Compound I-155] | 100 to 300 nM |
| Cn1c(CCCCCCc2cccc(Cl)c2)c(C(=O)N2CC[C@H](c3nnn[nH]3)C2)c2cc(Cl)cnc21 [Compound I-149] | < 100 nM |
| C[C@H](CC(=O)O)CC(=O)c1c(CCCCOCc2cccc(C#N)c2)n(C)c2ncc(F)cc12 [Compound I-416] | 100 to 300 nM |
| C[C@H](CC(=O)O)CC(=O)c1c(CCCCCOc2cnccn2)n(C)c2ccc(Cl)cc12 [Compound I-132] | > 300 nM |
| C[C@H](OCCCCc1c(C(=O)N2CC[C@H](C(=O)O)[C@H]2C)c2cc(C#N)cnc2n1C)c1ccccc1 [Compound I-454] | > 300 nM |
| Cn1c(CCCCCCc2cccc(Cl)c2)c(C(=O)N2CC(CC(=O)O)C2)c2cc(Cl)cnc21 [Compound I-154] | > 300 nM |
| C[C@@H](CC(=O)O)CC(=O)c1c(CCCCOCc2cc(Cl)cc(Cl)c2)n(C)c2ncc(C#N)cc12 [Compound I-386] | 100 to 300 nM |
| C[C@@H](CC(=O)O)CC(=O)c1c(CCCCCCc2cncs2)n(C)c2ncc(C#N)cc12 [Compound I-372] | > 300 nM |
